Earlier results on 1 compound are cited in patent US20160279124A1, “Method for Treating Addiction” (priority 2015, published 2016).

This data set has as its system opioid use. The following applies: clinic and office based medical detox and Naltrexone treatment: pill, injectable and implant; for opioid use.

On to `O=C1CC[C@@]2(O)[C@H]3Cc4ccc(O)c5c4[C@@]2(CCN3CC2CC2)[C@H]1O5` [Naltrexone], for which the Success was 8% for.
